Measured values published in patent publication US20250034216A1, “STEREOSELECTIVE COVALENT LIGANDS FOR ONCOGENIC AND IMMUNOLOGICAL PROTEINS” (The Scripps Research Institute, priority 2021, published 2025).

Experiments:
[1] = molecular target: T1, DENND2B_C804 (Homo sapiens, UniProt P78524); test: IA-DTB cysteine engagement; type: binding; settings: 22Rv1 cells, 20 μM probe, 1 h, relative to DMSO
T1 construct: endogenous in cells; host or cells: 22Rv1
T1 sequence (P78524 1-1137): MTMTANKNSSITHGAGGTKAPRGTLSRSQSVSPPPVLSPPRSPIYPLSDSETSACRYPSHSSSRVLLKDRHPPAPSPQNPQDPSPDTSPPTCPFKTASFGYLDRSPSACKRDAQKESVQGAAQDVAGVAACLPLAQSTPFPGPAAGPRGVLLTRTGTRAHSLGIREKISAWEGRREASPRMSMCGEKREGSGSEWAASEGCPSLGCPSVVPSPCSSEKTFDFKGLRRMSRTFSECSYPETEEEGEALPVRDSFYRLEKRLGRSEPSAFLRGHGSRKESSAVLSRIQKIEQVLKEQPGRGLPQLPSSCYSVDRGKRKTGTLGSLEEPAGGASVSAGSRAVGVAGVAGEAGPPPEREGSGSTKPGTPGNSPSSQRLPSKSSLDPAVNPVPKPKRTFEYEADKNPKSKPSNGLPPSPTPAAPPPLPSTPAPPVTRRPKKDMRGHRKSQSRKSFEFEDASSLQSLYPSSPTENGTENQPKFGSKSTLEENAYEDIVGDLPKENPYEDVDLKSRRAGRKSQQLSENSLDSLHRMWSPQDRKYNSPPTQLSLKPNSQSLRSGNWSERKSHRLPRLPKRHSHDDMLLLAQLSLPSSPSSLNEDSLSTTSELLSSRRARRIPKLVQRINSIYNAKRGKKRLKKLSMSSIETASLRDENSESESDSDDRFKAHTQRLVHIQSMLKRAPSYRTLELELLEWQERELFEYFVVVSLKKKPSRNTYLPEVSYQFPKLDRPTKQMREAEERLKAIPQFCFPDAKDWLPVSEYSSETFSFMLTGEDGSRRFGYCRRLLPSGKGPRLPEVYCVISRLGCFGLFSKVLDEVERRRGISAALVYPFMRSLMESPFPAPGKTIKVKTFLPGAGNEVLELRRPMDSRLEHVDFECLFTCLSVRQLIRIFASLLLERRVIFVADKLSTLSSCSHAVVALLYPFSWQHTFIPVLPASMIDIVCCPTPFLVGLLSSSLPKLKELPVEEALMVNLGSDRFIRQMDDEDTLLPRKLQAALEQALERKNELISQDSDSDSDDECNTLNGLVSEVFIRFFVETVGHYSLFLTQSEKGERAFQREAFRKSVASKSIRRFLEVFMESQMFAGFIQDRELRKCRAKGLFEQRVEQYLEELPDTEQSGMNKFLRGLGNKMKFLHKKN
Outline: (§1)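 Competitive chemoproteomics: residual cysteine reactivity toward IA-DTB in lysates from probe-treated cells was quantified by TMT reporter ions relative to DMSO-treated controls. Replicates sharing cell line, probe, concentration and duration were averaged.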

[2] = molecular target: T2, SLC25A39_C334 (Homo sapiens, UniProt Q9BZJ4); test: IA-DTB cysteine engagement; type: binding; settings: 22Rv1 cells, 20 μM probe, 1 h, relative to DMSO
T2 construct: endogenous in cells; host or cells: 22Rv1
T2 sequence (Q9BZJ4 1-359): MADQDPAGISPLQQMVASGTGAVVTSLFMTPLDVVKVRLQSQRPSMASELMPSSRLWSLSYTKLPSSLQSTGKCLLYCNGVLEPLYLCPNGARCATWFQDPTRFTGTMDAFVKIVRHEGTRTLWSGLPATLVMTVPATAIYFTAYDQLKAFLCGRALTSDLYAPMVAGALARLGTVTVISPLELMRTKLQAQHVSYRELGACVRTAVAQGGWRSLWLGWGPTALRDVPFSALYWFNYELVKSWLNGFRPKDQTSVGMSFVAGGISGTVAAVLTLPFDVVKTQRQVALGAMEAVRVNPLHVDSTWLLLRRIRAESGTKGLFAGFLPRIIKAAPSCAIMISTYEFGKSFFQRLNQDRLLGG
Outline: as §1

% engagement DENND2B_C804 [1] [%] | % engagement SLC25A39_C334 [2] [%] | SMILES
−5.75 | 72 | C=CC(=O)N1C[C@H](c2ccc(Br)cc2)[C@H]1C(=O)Nc1cccc2cccnc12 [MY-3B, (2S,3S)-1-acryloyl-3-(4-bromophenyl)-N-(quinolin-8-yl)azetidine-2-carboxamide]
80.25 | 45.5 | C=CC(=O)N1C[C@H](c2ccc(Br)cc2)[C@@H]1C(=O)Nc1cccc2cccnc12 [MY-1B, (2R,3S)-1-acryloyl-3-(4-bromophenyl)-N-(quinolin-8-yl)azetidine-2-carboxamide]
−5.25 | 30.5 | C=CC(=O)N1C[C@H](c2ccc(Br)cc2)[C@H]1C(=O)Nc1cccc2cccnc12 [MY-3A, (2S,3S)-1-acryloyl-3-(4-bromophenyl)-N-(quinolin-8-yl)azetidine-2-carboxamide]
29.25 | 23 | C=CC(=O)N1C[C@@H](c2ccc(Br)cc2)[C@H]1C(=O)Nc1cccc2cccnc12 [MY-1A, (2S,3R)-1-acryloyl-3-(4-bromophenyl)-N-(quinolin-8-yl)azetidine-2-carboxamide]
